# pIC50, pKi: −log10 of the molar value.
# Columns and labels:
# [1] = target: T1, 5-hydroxytryptamine receptor 2C (Homo sapiens, UniProt P28335); assay: DRUGMATRIX: Serotonin (5-Hydroxytryptamine) 5-HT2C radioligand binding (ligand: [3H] Mesulergine); format: cell membranes, CHO-K1, Membrane; settings: Not Active = under 50% inhibition at 10 µM; for IC50: cho-k1
# T1 sequence (P28335 whole entry): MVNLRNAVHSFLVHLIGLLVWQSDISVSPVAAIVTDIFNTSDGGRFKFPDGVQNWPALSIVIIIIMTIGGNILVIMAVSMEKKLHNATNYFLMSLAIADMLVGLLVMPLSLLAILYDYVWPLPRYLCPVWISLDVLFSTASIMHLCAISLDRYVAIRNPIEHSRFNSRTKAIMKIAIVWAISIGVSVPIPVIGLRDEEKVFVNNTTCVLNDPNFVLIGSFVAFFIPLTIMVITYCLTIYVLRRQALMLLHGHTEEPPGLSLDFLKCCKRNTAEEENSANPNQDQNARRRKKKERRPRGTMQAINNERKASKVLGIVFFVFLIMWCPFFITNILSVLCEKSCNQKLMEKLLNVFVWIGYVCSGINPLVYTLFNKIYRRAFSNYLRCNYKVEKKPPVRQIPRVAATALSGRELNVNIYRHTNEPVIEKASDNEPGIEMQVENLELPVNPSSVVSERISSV
# [2] = target: T2, Alpha-1B adrenergic receptor (Rattus norvegicus, UniProt P15823); assay: DRUGMATRIX: Alpha-1B adrenergic receptor radioligand binding (ligand: prazosin); format: cell membranes, Wistar, Liver, Membrane; settings: Not Active = under 50% inhibition at 10 µM
# T2 sequence (P15823 whole entry): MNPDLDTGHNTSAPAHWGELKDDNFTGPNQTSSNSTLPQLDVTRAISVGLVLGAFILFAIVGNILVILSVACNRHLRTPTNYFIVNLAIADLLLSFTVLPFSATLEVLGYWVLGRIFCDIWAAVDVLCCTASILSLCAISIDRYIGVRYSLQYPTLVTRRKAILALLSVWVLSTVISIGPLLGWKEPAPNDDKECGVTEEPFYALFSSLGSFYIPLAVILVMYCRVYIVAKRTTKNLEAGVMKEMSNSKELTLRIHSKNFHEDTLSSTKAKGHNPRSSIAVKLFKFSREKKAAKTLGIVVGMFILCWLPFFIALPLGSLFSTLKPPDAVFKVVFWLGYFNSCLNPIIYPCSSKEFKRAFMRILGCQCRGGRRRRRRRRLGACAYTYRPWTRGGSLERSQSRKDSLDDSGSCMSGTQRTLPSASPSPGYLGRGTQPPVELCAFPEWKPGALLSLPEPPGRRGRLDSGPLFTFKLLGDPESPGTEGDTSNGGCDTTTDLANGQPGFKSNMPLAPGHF
# [3] = target: T3, Estrogen receptor (Homo sapiens, UniProt P03372); settings: sf9; further: in other assays of this panel Not Active means under 50% inhibition at 10 µM
# T3 sequence (P03372 whole entry): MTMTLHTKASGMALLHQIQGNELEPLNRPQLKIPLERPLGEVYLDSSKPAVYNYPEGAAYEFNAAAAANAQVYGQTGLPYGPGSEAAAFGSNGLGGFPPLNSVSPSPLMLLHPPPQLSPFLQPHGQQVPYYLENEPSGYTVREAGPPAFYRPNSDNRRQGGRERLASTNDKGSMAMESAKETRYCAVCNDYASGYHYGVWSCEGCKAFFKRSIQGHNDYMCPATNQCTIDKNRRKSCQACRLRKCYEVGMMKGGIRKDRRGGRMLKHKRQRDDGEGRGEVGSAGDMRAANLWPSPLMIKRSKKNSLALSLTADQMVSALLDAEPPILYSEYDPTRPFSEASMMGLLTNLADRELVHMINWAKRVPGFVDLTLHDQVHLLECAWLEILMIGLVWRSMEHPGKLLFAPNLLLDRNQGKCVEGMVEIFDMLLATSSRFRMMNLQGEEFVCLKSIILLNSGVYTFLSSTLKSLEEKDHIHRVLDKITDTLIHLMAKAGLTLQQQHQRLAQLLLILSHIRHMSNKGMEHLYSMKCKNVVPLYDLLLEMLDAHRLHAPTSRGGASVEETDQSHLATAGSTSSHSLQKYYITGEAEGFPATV
# [4] = target: Mu-type opioid receptor (Homo sapiens, UniProt P35372); assay: DRUGMATRIX: Opiate mu (OP3, MOP) radioligand binding (ligand: [3H] Diprenorphine); format: cell membranes, CHO-K1, Membrane; settings: cho-k1; Not Active = under 50% inhibition at 10 µM
# Sequence of Mu-type opioid receptor (P35372 whole entry): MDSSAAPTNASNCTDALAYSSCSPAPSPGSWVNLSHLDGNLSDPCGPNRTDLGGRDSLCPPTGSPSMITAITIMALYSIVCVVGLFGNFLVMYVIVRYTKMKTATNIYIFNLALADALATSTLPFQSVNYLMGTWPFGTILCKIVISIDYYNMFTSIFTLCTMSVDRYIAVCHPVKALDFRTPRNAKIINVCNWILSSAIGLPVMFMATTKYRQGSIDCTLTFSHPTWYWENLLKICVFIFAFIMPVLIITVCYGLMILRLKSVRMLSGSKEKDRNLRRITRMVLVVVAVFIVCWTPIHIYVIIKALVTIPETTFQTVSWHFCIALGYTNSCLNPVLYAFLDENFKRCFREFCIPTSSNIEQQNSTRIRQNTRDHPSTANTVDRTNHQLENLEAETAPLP
SMILES,IC50 [1],IC50 [2],IC50 [3],IC50 [4],pIC50 ([1]; read-out: IC50),pKi ([1]; read-out: Ki),pIC50 ([2]; read-out: IC50),pKi ([2]; read-out: Ki)
CC#C[C@]1(O)CC[C@H]2[C@@H]3CCC4=CC(=O)CCC4=C3[C@@H](c3ccc(N(C)C)cc3)C[C@@]21C [MIFEPRISTONE],Not Active,Not Active,–,–,–,–,–,–
CC[C@@]1(O)C(=O)OCc2c1cc1n(c2=O)Cc2cc3c(CN(C)C)c(O)ccc3nc2-1 [TOPOTECAN],Not Active,Not Active,Not Active,Not Active,–,–,–,–
Cc1cc2c(s1)Nc1ccccc1N=C2N1CCN(C)CC1 [OLANZAPINE],–,–,Not Active,Not Active,–,–,–,–
CO[C@@]12[C@H](COC(N)=O)C3=C(C(=O)C(C)=C(N)C3=O)N1C[C@@H]1N[C@@H]12 [MITOMYCIN],Not Active,Not Active,–,Not Active,–,–,–,–
CCOC(=O)C1=C(C)NC(C)=C(C(=O)OCC)C1c1ccccc1/C=C/C(=O)OC(C)(C)C [LACIDIPINE],Not Active,Not Active,Not Active,Not Active,–,–,–,–
Cc1cn([C@H]2C=C[C@@H](CO)O2)c(=O)[nH]c1=O [STAVUDINE],Not Active,Not Active,–,Not Active,–,–,–,–
C#C[C@]1(O)CC[C@H]2[C@@H]3[C@H](C)CC4=C(CCC(=O)C4)[C@H]3CC[C@@]21C [TIBOLONE],Not Active,Not Active,–,Not Active,–,–,–,–
CC(O)C(=O)O (stereo not given) [LACTIC ACID],Not Active,Not Active,Not Active,Not Active,–,–,–,–
O=C(O)c1cc(/N=N/c2ccc(S(=O)(=O)Nc3ccccn3)cc2)ccc1O [SULFASALAZINE],Not Active,Not Active,–,Not Active,–,–,–,–
CNCCCC12CCC(c3ccccc31)c1ccccc12 [MAPROTILINE],–,–,Not Active,Not Active,–,–,–,–
Cc1ccc(Cl)c(Nc2ccccc2C(=O)O)c1Cl [MECLOFENAMIC ACID],Not Active,Not Active,Not Active,Not Active,–,–,–,–
CC(C)(C)NC[C@H](O)COc1cccc2c1CCCC2=O [LEVOBUNOLOL],Not Active,Not Active,Not Active,Not Active,–,–,–,–
Cc1cccc(C)c1NC(=O)C(C)N (stereo not given) [TOCAINIDE],Not Active,Not Active,Not Active,Not Active,–,–,–,–
CCOc1cc(N)c(Cl)cc1C(=O)NCC1CN(Cc2ccc(F)cc2)CCO1 (stereo not given) [MOSAPRIDE],–,Not Active,Not Active,Not Active,6.40,6.68,–,–
Cc1cnc(NC(=O)C2=C(O)c3ccccc3S(=O)(=O)N2C)s1 [MELOXICAM],Not Active,Not Active,Not Active,Not Active,–,–,–,–
O=C1CC[C@@]2(O)[C@H]3Cc4ccc(O)c5c4[C@@]2(CCN3CC2CC2)[C@H]1O5 [NALTREXONE],Not Active,Not Active,–,–,–,–,–,–
O=C(c1ccccc1)c1ccc2n1CCC2C(=O)O (stereo not given) [KETOROLAC],Not Active,Not Active,–,Not Active,–,–,–,–
CN1C(=O)OC(C)(C)C1=O [TRIMETHADIONE],Not Active,Not Active,Not Active,Not Active,–,–,–,–
Cc1[nH]c(=O)c(C#N)cc1-c1ccncc1 [MILRINONE],Not Active,Not Active,Not Active,Not Active,–,–,–,–

SMILES,IC50 [1],IC50 [2],IC50 [3],IC50 [4],pIC50 ([1]; read-out: IC50),pKi ([1]; read-out: Ki),pIC50 ([2]; read-out: IC50),pKi ([2]; read-out: Ki)
C[C@]12CCC(=O)C[C@@H]1CC[C@@H]1[C@@H]2CC[C@]2(C)[C@@H](O)CC[C@@H]12 [STANOLONE],Not Active,Not Active,–,Not Active,–,–,–,–
CS(=O)(=O)c1ccc(C2=C(c3ccccc3)C(=O)OC2)cc1 [ROFECOXIB],Not Active,Not Active,–,Not Active,–,–,–,–
CC1(C)[C@H](C(=O)O)N2C(=O)C[C@H]2S1(=O)=O [SULBACTAM],Not Active,Not Active,Not Active,Not Active,–,–,–,–
CC(N)C12CC3CC(CC(C3)C1)C2 (stereo not given) [RIMANTADINE],Not Active,Not Active,Not Active,Not Active,–,–,–,–
O=C(OC[C@H]1O[C@@H](OC(=O)c2cc(O)c(O)c(OC(=O)c3cc(O)c(O)c(O)c3)c2)[C@H](OC(=O)c2cc(O)c(O)c(OC(=O)c3cc(O)c(O)c(O)c3)c2)[C@@H](OC(=O)c2cc(O)c(O)c(OC(=O)c3cc(O)c(O)c(O)c3)c2)[C@@H]1OC(=O)c1cc(O)c(O)c(OC(=O)c2cc(O)c(O)c(O)c2)c1)c1cc(O)c(O)c(OC(=O)c2cc(O)c(O)c(O)c2)c1 [TANNIC ACID],Not Active,Not Active,–,Not Active,–,–,–,–
CO[C@@H]1[C@@H](OC)[C@H](C)[C@@](O)(CC(=O)O)O[C@H]1[C@H](C)[C@H]1O[C@@]2(CC[C@@](C)([C@H]3CC[C@@](C)([C@@H]4O[C@@H]([C@H]5O[C@](C)(O)[C@H](C)C[C@@H]5C)C[C@@H]4O[C@@H]4C[C@H](OC)[C@@H](OC)[C@H](C)O4)O3)O2)C[C@H](O)[C@H]1C.N [MADURAMICIN],Not Active,–,Not Active,Not Active,–,–,–,–
C[N+]1(C)[C@@H]2C[C@@H](OC(=O)[C@H](CO)c3ccccc3)C[C@H]1[C@@H]1O[C@@H]12.[Br-] [METHSCOPOLAMINE BROMIDE],Not Active,Not Active,Not Active,Not Active,–,–,–,–
Cc1ccc(S(=O)(=O)NC(=O)NN2CCCCCC2)cc1 [TOLAZAMIDE],Not Active,Not Active,Not Active,Not Active,–,–,–,–
CCC(C)(C)C(=O)O[C@H]1C[C@@H](C)C=C2C=C[C@H](C)[C@H](CC[C@@H]3C[C@@H](O)CC(=O)O3)[C@H]21 [SIMVASTATIN],Not Active,Not Active,Not Active,Not Active,–,–,–,–
Cc1ccnc(NS(=O)(=O)c2ccc(N)cc2)n1 [SULFAMERAZINE],Not Active,Not Active,Not Active,Not Active,–,–,–,–
OC[C@@H](O)[C@@H](O)[C@H](O)[C@H](O)CO [MANNITOL],Not Active,Not Active,Not Active,Not Active,–,–,–,–
CCN(CC)N=O [N-NITROSODIETHYLAMINE],Not Active,Not Active,–,–,–,–,–,–
CC(=O)O[C@]1(C(C)=O)CC[C@H]2[C@@H]3C[C@H](C)C4=CC(=O)CC[C@]4(C)[C@H]3CC[C@@]21C [MEDROXYPROGESTERONE ACETATE],Not Active,Not Active,Not Active,Not Active,–,–,–,–
CN1C[C@H](CNC(=O)OCc2ccccc2)C[C@@H]2c3cccc4c3c(cn4C)C[C@H]21 [METERGOLINE],–,–,Not Active,Not Active,–,–,6.58,6.84
CC(Cl)(Cl)Cl [TRICHLOROETHANE],Not Active,Not Active,–,–,–,–,–,–
CC1=C(/C=C/C(C)=C/C=C/C(C)=C/C(=O)O)C(C)(C)CCC1 [TRETINOIN],Not Active,Not Active,Not Active,Not Active,–,–,–,–
C=CCc1ccc2c(c1)OCO2 [SAFROLE],Not Active,Not Active,–,Not Active,–,–,–,–
C1CCN2C[C@@H]3C[C@@H](CN4CCCC[C@@H]34)[C@H]2C1 [SPARTEINE],Not Active,Not Active,–,–,–,–,–,–

# — ChEMBL document CHEMBL1909046, “DrugMatrix in vitro pharmacology data”
